Source: patent US9540392B2, “Thienopyrimidines” (BAYER PHARMA AKTIENGESELLSCHAFT, priority 2012, dated 2017)

The compounds below were run against T1, human full-length MKNK1 (Homo sapiens, UniProt Q9BUB5, T385D) (assay: MKNK1 kinase high ATP assay (TR-FRET)). Details: not given.
T1 construct: GST (N); purchased Carna Biosciences 02-145; host or cells: insect cells (baculovirus expression system)
T1 sequence (Q9BUB5 1-424 isoform Q9BUB5-2 T344D): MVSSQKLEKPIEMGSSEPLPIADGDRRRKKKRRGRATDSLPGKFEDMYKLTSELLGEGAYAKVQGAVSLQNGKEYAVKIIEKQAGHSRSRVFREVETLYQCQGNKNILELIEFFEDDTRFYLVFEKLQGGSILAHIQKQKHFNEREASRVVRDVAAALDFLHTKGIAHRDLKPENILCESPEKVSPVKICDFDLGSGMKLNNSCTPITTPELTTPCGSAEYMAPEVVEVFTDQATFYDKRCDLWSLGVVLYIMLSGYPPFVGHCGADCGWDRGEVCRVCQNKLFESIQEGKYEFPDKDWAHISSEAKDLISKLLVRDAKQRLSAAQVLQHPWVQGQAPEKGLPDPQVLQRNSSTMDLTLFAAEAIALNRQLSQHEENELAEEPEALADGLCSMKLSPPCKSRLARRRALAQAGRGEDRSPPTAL
Format: biochemical
Procedure, shortened: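 Compound was preincubated 15 min at 22° C. with MKNK1 in 50 mM HEPES pH 7.5, 5 mM MgCl2, 1.0 mM DTT, then the reaction ran 30 min at 22° C. with 2 mM ATP and 0.06 μM biotinylated peptide (final).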
`CCOc1cc2[nH]ncc2cc1Nc1ncnc2sc3c(c12)CCC(C(=O)N1CCC(=O)CC1)C3` (racemic) [Example 211, (RS)-1-({4-[(6-Ethoxy-1H-indazol-5-yl)amino]-5,6,7,8-tetrahydro[1]benzothieno[2,3-d]pyrimidin-7-yl}carbonyl)piperidin-4-one] gave an IC50 of 0.5 nM.

Same assay, conditions: 2 mM ATP, after preincubation with MKNK1; read-out: MKNK1 IC50 (MKNK1 high ATP)
Compound `O=C(NCC1CC1)C1CCc2c(sc3ncnc(Nc4ccc5[nH]ncc5c4)c23)C1` (stereo not shown) [Example 7, N-(Cyclopropylmethyl)-4-(1H-indazol-5-ylamino)-5,6,7,8-tetrahydro[1]benzothieno[2,3-d]pyrimidine-7-carboxamide] has an IC50 of 6 nM. Work on `CCOc1cc2[nH]ncc2cc1Nc1ncnc2sc3c(c12)CCC(C(=O)N(C)CCO)C3` (racemic) [Example 225, (RS)-4-[(6-Ethoxy-1H-indazol-5-yl)amino]-N-(2-hydroxyethyl)-N-methyl-5,6,7,8-tetrahydro[1]benzothieno[2,3-d]pyrimidine-7-carboxamide] yielded an IC50 of 0.3 nM. Work on `Cc1cccc(N2CCN(C(=O)C3CCc4c(sc5ncnc(Nc6ccc7[nH]ncc7c6)c45)C3)CC2)c1` (racemic) [Example 111, (RS)-[4-(1H-indazol-5-ylamino)-5,6,7,8-tetrahydro[1]benzothieno[2,3-d]pyrimidin-7-yl][4-(3-methylphenyl)piperazin-1-yl]methanone] yielded an IC50 of 24.7 nM. `O=C(Nc1cncnc1)C1CCc2c(sc3ncnc(Nc4ccc5[nH]ncc5c4)c23)C1` (racemic) [Example 150, (RS)-4-(1H-indazol-5-ylamino)-N-(pyrimidin-5-yl)-5,6,7,8-tetrahydro[1]benzothieno[2,3-d]pyrimidine-7-carboxamide] gave an IC50 of 31.2 nM. In the case of `CCOc1cc2[nH]ncc2cc1Nc1ncnc2sc3c(c12)CCC(C(=O)N(CC)CCOC)C3` (racemic) [Example 273, (RS)-4-[(6-Ethoxy-1H-indazol-5-yl)amino]-N-ethyl-N-(2-methoxyethyl)-5,6,7,8-tetrahydro[1]benzothieno[2,3-d]pyrimidine-7-carboxamide], the IC50 is reported as 0.2 nM. In the case of `CCOc1cc2[nH]ncc2cc1Nc1ncnc2sc3c(c12)CCC(C(=O)N(CC)CCC#N)C3` (racemic) [Example 242, (RS)—N-(2-Cyanoethyl)-4-[(6-ethoxy-1H-indazol-5-yl)amino]-N-ethyl-5,6,7,8-tetrahydro[1]benzothieno[2,3-d]pyrimidine-7-carboxamide], the IC50 is reported as 0.3 nM. `CC(C)OC(=O)C1CCc2c(sc3ncnc(Nc4ccc5[nH]ncc5c4)c23)C1` (racemic) [Example 74, (RS)-Propan-2-yl 4-(1H-indazol-5-ylamino)-5,6,7,8-tetrahydro[1]benzothieno[2,3-d]pyrimidine-7-carboxylate] gave an IC50 of 27.6 nM. In the case of `O=C(C1CCc2c(sc3ncnc(Nc4ccc5[nH]ncc5c4)c23)C1)N1CCS(=O)(=O)CC1` (racemic) [Example 188, (RS)-(1,1-dioxidothiomorpholin-4-yl)[4-(1H-indazol-5-ylamino)-5,6,7,8-tetrahydro[1]benzothieno[2,3-d]pyrimidin-7-yl]methanone], the IC50 is reported as 22.6 nM. Work on `O=C(C1CCc2c(sc3ncnc(Nc4ccc5[nH]ncc5c4)c23)C1)N1CCC1` (stereo not shown) [Example 43, Azetidin-1-yl[4-(1H-indazol-5-ylamino)-5,6,7,8-tetrahydro[1]benzothieno [2,3-d]pyrimidin-7-yl]methanone] yielded an IC50 of 9 nM. `CC(C)Oc1cc2[nH]ncc2cc1Nc1ncnc2sc3c(c12)CCC(C(=O)N(C)CCO)C3` (racemic) [Example 230, (RS)—N-(2-Hydroxyethyl)-4-[(6-isopropoxy-1H-indazol-5-yl)amino]-N-methyl-5,6,7,8-tetrahydro[1]benzothieno[2,3-d]pyrimidine-7-carboxamide] was tested, and the IC50 was 0.2 nM. In the case of `COc1cc2[nH]ncc2cc1Nc1ncnc2sc3c(c12)CCC(C(=O)N(C)CC(F)F)C3` (racemic) [Example 170, (RS)—N-(2,2-Difluoroethyl)-4-[(6-methoxy-1H-indazol-5-yl)amino]-N-methyl-5,6,7,8-tetrahydro[1]benzothieno[2,3-d]pyrimidine-7-carboxamide], the IC50 is reported as 0.8 nM. For `CCOc1cc2[nH]ncc2cc1Nc1ncnc2sc3c(c12)CCC(C(=O)N(C)CC)C3` (racemic) [Example 229, (RS)-4-[(6-Ethoxy-1H-indazol-5-yl)amino]-N-ethyl-N-methyl-5,6,7,8-tetrahydro[1]benzothieno[2,3-d]pyrimidine-7-carboxamide], the IC50 was 0.7 nM. Compound `CN(C)CCN(Cc1ccccc1)C(=O)C1CCc2c(sc3ncnc(Nc4ccc5[nH]ncc5c4)c23)C1` (racemic) [Example 84, (RS)-N-benzyl-N-[2-(dimethylamino)ethyl]-4-(1H-indazol-5-ylamino)-5,6,7,8-tetrahydro[1]benzothieno[2,3-d]pyrimidine-7-carboxamide] has an IC50 of 5.5 nM. For `O=C(NCCOc1ccccc1)C1CCc2c(sc3ncnc(Nc4ccc5[nH]ncc5c4)c23)C1` (stereo not shown) [Example 31, 4-(1H-Indazol-5-ylamino)-N-(2-phenoxyethyl)-5,6,7,8-tetrahydro[1] benzothieno [2,3-d]pyrimidine-7-carboxamide], the IC50 was 4 nM. In the case of `CCOc1cc2[nH]ncc2cc1Nc1ncnc2sc3c(c12)CCC(C(=O)N(CC)C(C)C)C3` (racemic) [Example 236, (RS)-4-[(6-Ethoxy-1H-indazol-5-yl)amino]-N-ethyl-N-(propan-2-yl)-5,6,7,8-tetrahydro[1]benzothieno[2,3-d]pyrimidine-7-carboxamide], the IC50 is reported as 2.8 nM. Compound `O=C(NCc1ccsc1)C1CCc2c(sc3ncnc(Nc4ccc5[nH]ncc5c4)c23)C1` (racemic) [Example 151, (RS)-4-(1H-indazol-5-ylamino)-N-(thiophen-3-ylmethyl)-5,6,7,8-tetrahydro[1]benzothieno[2,3-d]pyrimidine-7-carboxamide] has an IC50 of 3.2 nM. For `CC(C)(C)NC(=O)C1CCc2c(sc3ncnc(Nc4ccc5[nH]ncc5c4)c23)C1` (racemic) [Example 102, (RS)-N-tert-butyl-4-(1H-indazol-5-ylamino)-5,6,7,8-tetrahydro[1]benzothieno[2,3-d]pyrimidine-7-carboxamide], the IC50 was 14.9 nM. Work on `O=C(C1CCc2c(sc3ncnc(Nc4ccc5[nH]ncc5c4)c23)C1)N1CCN(C(=O)N2CCCC2)CC1` (stereo not shown) [Example 52, [4-(1H-Indazol-5-ylamino)-5,6,7,8-tetrahydro[1]benzothieno [2,3-d]pyrimidin-7-yl][4-(pyrrolidin-1-ylcarbonyl)piperazin-1-yl]methanone] yielded an IC50 of 20 nM. With `O=C(C1CCc2c(sc3ncnc(Nc4ccc5[nH]ncc5c4)c23)C1)N1CCCC1` (stereo not shown) [Example 51, [4-(1H-Indazol-5-ylamino)-5,6,7,8-tetrahydro[1]benzothieno [2,3-d]pyrimidin-7-yl](pyrrolidin-1-yl)methanone] the IC50 was 15 nM. Work on `COc1cc2[nH]ncc2cc1Nc1ncnc2sc3c(c12)CCC(C(=O)N1CCC(C)(C)C1)C3` (racemic) [Example 180, (RS)-(3,3-Dimethylpyrrolidin-1-yl){4-[(6-methoxy-1H-indazol-5-yl)amino]-5,6,7,8-tetrahydro[1]benzothieno[2,3-d]pyrimidin-7-yl}methanone] yielded an IC50 of 0.8 nM. In the case of `O=C(C1CCc2c(sc3ncnc(Nc4ccc5[nH]ncc5c4)c23)C1)N1CCCC(O)C1` (racemic) [Example 108, (RS)-(3-hydroxypiperidin-1-yl)[4-(1H-indazol-5-ylamino)-5,6,7,8-tetrahydro[1]benzothieno[2,3-d]pyrimidin-7-yl]methanone], the IC50 is reported as 12 nM.
